Assays:
CDC2L6/CycC (CDK19) = target: T1, CDC2L6/CycC (CDK19) (Homo sapiens, UniProt Q9BWU1); assay: CDK19 inhibitory activity (Kinase Tracer-236 / Eu-anti-GST fluorescence assay); assay type: binding; parameters: Percent inhibition of CDK19 activity (%): concentration or dose not given beside the values; details: test compound concentration given as '1 1.1.1\4' [sic]
T1 construct: purchased Carna Biosciences Inc
Experimental: (§1) The compound of the present invention was evaluated for its CDK8 inhibitory activity and CDK19 inhibitory activity by the following method. […] The primary diluted solution was dispensed in the amount of 2 μL/well to a 384-well plate, and then, a mixed solution of Eu^3+ Cryptate conjugated mouse monoclonal antibody anti-glutathione S-transferase (Cisbio) diluted 267-fold with an assay buffer and 60 nM Kinase Tracer-236 (Life technologies) was added thereto at 2 μL/well. […] After the addition, the plate was left standing at room temperature for 1 hour, and then, the fluorescence intensity (excitation wavelength 320 nm, fluorescence wavelength 615 nm, 665 nm, delay time 50 μsec) was measured using ann EnVision plate reader (PerkinElmer). The percent inhibition of CDK8 or CDK19 activity by the test compound can be calculated according to the following formula, wherein the fluorescence intensity of a reaction solution in the absence of compound is defined as the control, and the fluorescence intensity of a reaction solution in the presence of 10 μM of control compound is defined as the blank.

CDK8/CycC = target: T2, CDK8/CycC (Homo sapiens, UniProt P49336); assay: CDK8 inhibitory activity (Kinase Tracer-236 / Eu-anti-GST fluorescence assay); assay type: binding; parameters: Percent inhibition of CDK8 activity (%): concentration or dose not given beside the values; details: test compound concentration given as '1 1.1.1\4' [sic]
T2 construct: purchased Carna Biosciences
T2 sequence (P49336 whole entry): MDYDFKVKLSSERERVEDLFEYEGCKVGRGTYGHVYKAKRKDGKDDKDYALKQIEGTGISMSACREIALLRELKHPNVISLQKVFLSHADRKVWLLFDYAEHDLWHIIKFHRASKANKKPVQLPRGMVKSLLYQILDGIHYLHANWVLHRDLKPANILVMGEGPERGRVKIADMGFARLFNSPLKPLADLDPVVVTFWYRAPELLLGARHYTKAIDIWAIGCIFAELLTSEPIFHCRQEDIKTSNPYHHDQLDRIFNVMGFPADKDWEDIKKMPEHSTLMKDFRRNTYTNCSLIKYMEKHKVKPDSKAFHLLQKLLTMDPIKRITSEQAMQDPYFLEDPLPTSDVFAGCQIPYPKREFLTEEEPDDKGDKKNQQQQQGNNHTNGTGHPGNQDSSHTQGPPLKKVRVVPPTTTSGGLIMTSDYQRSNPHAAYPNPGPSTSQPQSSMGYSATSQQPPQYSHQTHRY
T2 sequence (P24863 whole entry partner): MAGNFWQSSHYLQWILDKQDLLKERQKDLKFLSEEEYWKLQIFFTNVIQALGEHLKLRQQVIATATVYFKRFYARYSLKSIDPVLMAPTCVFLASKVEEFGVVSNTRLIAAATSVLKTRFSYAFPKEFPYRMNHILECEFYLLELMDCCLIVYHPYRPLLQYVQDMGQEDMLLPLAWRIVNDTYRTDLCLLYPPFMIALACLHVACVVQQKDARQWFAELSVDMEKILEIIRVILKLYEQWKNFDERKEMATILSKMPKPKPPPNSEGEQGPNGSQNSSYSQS
Experimental: as §1

[1] = test system: human multiple myeloma RPMI8226 cells; assay: Inhibitory activity against human multiple myeloma RPMI8226 cell growth (CellTiter-Glo); assay type: cell-based; details: Homo sapiens, RPMI-8226, 192 h, 1 μM test compound, cultured for 8 days; read-out: Percent inhibition of RPMI8226 cell growth (%)
Experimental: The compound of the present invention was evaluated for its inhibitory activity against human multiple myeloma RPMI8226 cell growth by the following method.
A suspension of human multiple myeloma RPMI8226 cells (purchased from the Health Protection Agency) was inoculated at 40 μL (300 cells/well) to a 384-well plate and cultured at 37° C. for 1 day in a 5% CO2 incubator. After the culture, each test compound solution was added thereto at a test concentration of 1 μM using TECAN D300, and the cells were further cultured for 8 days. After the culture, CellTiter-Glo™ Luminescent Cell Viability Assay reagent (Promega) was added at 40 μL/well to a 384-well plate, and the amount of luminescence was measured using a luminometer. Inhibitory activity against human multiple myeloma RPMI8226 cell growth (percent inhibition (%)) of the test compound was calculated according to the following formula, which is based on the hypothesis that the amount of residual ATP reflects the number of cells. In this formula, 100% control represents the amount of luminescence from a well with only 0.1% DMSO added. Percent inhibition (%)=(1−(amount of luminescence of the test compound)÷(100% control))×100

T1 sequence (Q9BWU1 whole entry): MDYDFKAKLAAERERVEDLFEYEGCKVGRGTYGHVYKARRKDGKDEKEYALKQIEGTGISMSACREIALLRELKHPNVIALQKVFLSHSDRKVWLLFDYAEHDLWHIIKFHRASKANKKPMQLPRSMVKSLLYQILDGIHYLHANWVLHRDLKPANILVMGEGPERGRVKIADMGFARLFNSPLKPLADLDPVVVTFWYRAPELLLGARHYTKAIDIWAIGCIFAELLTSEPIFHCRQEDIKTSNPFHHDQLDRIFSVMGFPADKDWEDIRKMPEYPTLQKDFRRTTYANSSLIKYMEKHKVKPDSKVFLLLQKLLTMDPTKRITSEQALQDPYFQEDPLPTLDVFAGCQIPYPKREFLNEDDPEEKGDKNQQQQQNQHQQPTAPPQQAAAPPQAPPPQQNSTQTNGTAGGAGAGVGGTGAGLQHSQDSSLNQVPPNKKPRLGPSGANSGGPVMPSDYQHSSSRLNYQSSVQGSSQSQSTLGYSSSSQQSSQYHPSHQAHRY
T1 sequence (P24863 whole entry partner): as the sequence (P24863 whole entry partner) above

Percent inhibition of CDK19 activity (%) (CDC2L6/CycC (CDK19))	Percent inhibition of CDK8 activity (%) (CDK8/CycC)	SMILES	inhibition at 1 µM [1]
100%	98%	Cc1nc(N)ccc1Oc1sc(C(N)=O)c2c1-c1sncc1CC2 [Example 29, 8-((6-Amino-2-methylpyridin-3-yl)oxy)-4,5-dihydrothieno[3,4-g][1,2]benzothiazole-6-carboxamide]	70%
102%	104%	Cc1nc(NC(=O)C2CC2)ccc1Oc1sc(C(N)=O)c2c1-c1sncc1CC2 [Example 30, 8-((6-((Cyclopropylcarbonyl)amino)-2-methylpyridin-3-yl)oxy)-4,5-dihydrothieno[3,4-g][1,2]benzothiazole-6-carboxamide]	71%
101%	103%	Cc1nc(NC(=O)C2(O)CC2)ccc1Oc1sc(C(N)=O)c2c1-c1sncc1CC2 [Example 31, 8-((6-(((1-Hydroxycyclopropyl)carbonyl)amino)-2-methylpyridin-3-yl)oxy)-4,5-dihydrothieno[3,4-g][1,2]benzothiazole-6-carboxamide]	59%
99%	101%	NC(=O)c1sc(Oc2ccc(=O)[nH]c2)c2c1CCc1cnsc1-2 [Example 33, 8-((6-Oxo-1,6-dihydropyridin-3-yl)oxy)-4,5-dihydrothieno[3,4-g][1,2]benzothiazole-6-carboxamide]	69%
98%	100%	CON(C)C(=O)c1sc(Oc2cccnc2C)c2c1CCc1cnsc1-2 [Example 34, N-Methoxy-N-methyl-8-((2-methylpyridin-3-yl)oxy)-4,5-dihydrothieno[3,4-g][1,2]benzothiazole-6-carboxamide]	50%
94%	95%	Cc1ncccc1Oc1sc(C(=O)Nc2ncco2)c2c1-c1sncc1CC2 [Example 37, 8-((2-Methylpyridin-3-yl)oxy)-N-(1,3-oxazol-2-yl)-4,5-dihydrothieno[3,4-g][1,2]benzothiazole-6-carboxamide]	73%
100%	97%	Cc1ncccc1Oc1sc(C(=O)NO)c2c1-c1sncc1CC2 [Example 38, N-Hydroxy-8-((2-methylpyridin-3-yl)oxy)-4,5-dihydrothieno[3,4-g][1,2]benzothiazole-6-carboxamide]	67%
95%	97%	CC(=O)c1sc(Oc2cccnc2C)c2c1CCc1cnsc1-2 [Example 39, 1-(8-((2-Methylpyridin-3-yl)oxy)-4,5-dihydrothieno[3,4-g][1,2]benzothiazol-6-yl)ethanone]	60%
58%	69%	Cc1ncccc1Oc1sc(C#N)c2c1-c1sncc1CC2 [Example 40, 8-((2-Methylpyridin-3-yl)oxy)-4,5-dihydrothieno[3,4-g][1,2]benzothiazole-6-carbonitrile]	61%
93%	103%	Cc1ncccc1Oc1sc(C(N)=O)c2c1-c1snnc1CC2 [Example 43, 8-((2-Methylpyridin-3-yl)oxy)-4,5-dihydrothieno[3,4-g][1,2,3]benzothiadiazole-6-carboxamide]	49%
100%	105%	Cc1nn(C)cc1Oc1sc(C(N)=O)c2c1-c1sncc1CC2 [Example 47, 8-((1,3-Dimethyl-1H-pyrazol-4-yl)oxy)-4,5-dihydrothieno[3,4-g][1,2] benzothiazole-6-carboxamide]	57%
99%	99%	CC(C)S(=O)(=O)c1ccc(Oc2sc(C(N)=O)c3c2-c2sncc2CC3)cc1 [Example 50, 8-(4-(isopropylsulfonyl)phenoxy)-4,5-dihydrothieno[3,4-g][1,2]benzothiazole-6-carboxamide]	58%
95%	98%	CCCSc1sc(C(N)=O)c2c1-c1sncc1CC2 [Example 52, 8-(Propylsulfanyl)-4,5-dihydrothieno [3,4-g][1,2]benzothiazole-6-carboxamide]	65%
99%	100%	CS(=O)(=O)c1ccc(Oc2sc(C(N)=O)c3c2-c2sncc2CC3)cc1 [Example 53, 8-(4-(Methylsulfonyl)phenoxy)-4,5-dihydrothieno[3,4-g][1,2]benzothiazole-6-carboxamide]	61%
101%	100%	Cc1ncccc1Oc1sc(C(=O)NOCc2ccccc2)c2c1-c1sncc1CC2 [Example 58, N-(Benzyloxy)-8-((2-methylpyridin-3-yl)oxy)-4,5-dihydrothieno[3,4-g][1,2] benzothiazole-6-carboxamide]	49%
100%	100%	Cc1ncccc1Oc1sc(C(=O)Nn2cccc2)c2c1-c1sncc1CC2 [Example 87, 8-((2-Methylpyridin-3-yl)oxy)-N-(1H-pyrrol-1-yl)-4,5-dihydrothieno [3,4-g][1,2]benzothiazole-6-carboxamide]	48%
99%	102%	NC(=O)c1sc(Oc2ccc(S(F)(F)(F)(F)F)cc2)c2c1CCc1cnsc1-2 [Example 89]	54%
102%	102%	NC(=O)c1sc(Oc2ccc(C(F)(F)F)cc2)c2c1CCc1cnsc1-2 [Example 90]	55%
95%	90%	CN(C)C(=O)c1ccc(Oc2sc(C(N)=O)c3c2-c2sncc2CC3)cn1 [Example 91]	58%
95%	89%	NC(=O)c1sc(Oc2cncc(Br)c2)c2c1CCc1cnsc1-2 [Example 92, 8-((5-Bromopyridin-3-yl)oxy)-4,5-dihydrothieno[3,4-g][1,2]benzothiazole-6-carboxamide]	58%
96%	87%	NC(=O)c1sc(Oc2ccc(N)nc2)c2c1CCc1cnsc1-2 [Example 93, 8-((6-Aminopyridin-3-yl)oxy)-4,5-dihydrothieno[3,4-g][1,2]benzothiazole-6-carboxamide]	63%
97%	90%	CC(=O)Nc1ccc(Oc2sc(C(N)=O)c3c2-c2sncc2CC3)cn1 [Example 94, 8-((6-Acetamidopyridin-3-yl)oxy)-4,5-dihydrothieno[3,4-g][1,2]benzothiazole-6-carboxamide]	63%
89%	97%	CCOCCOc1sc(C(N)=O)c2c1-c1sncc1CC2 [Example 95, 8-(2-Ethoxyethoxy)-4,5-dihydrothieno [3,4-g][1,2]benzothiazole-6-carboxamide]	69%
100%	110%	Cn1cc(Oc2sc(C(N)=O)c3c2-c2sncc2CC3)cn1 [Example 96, 8-((1-Methyl-1H-pyrazol-4-yl)oxy)-4,5-dihydrothieno[3,4-g][1,2] benzothiazole-6-carboxamide]	69%
99%	103%	COCC(=O)Nc1ccc(Oc2sc(C(N)=O)c3c2-c2sncc2CC3)cn1 [Example 97, 8-((6-((Methoxyacetyl)amino)pyridin-3-yl)oxy)-4,5-dihydrothieno[3,4-g][1,2] benzothiazole-6-carboxamide]	55%
